Data on six compounds can be found in patent US4407799A, “2-Substituted-phenyl-1,3-perhydrothiazine-4-one” (priority 1980, dated 1983).

Data set [1] has as its system peptic ulcer due to pyloric ligation. In words: Effect on peptic ulcer due to pyloric ligation. The note with it: 100 mg/kg, intraperitoneal, rats; for Ulcer coefficient: just after pyloric ligation, 15 hours; for Rate of suppression of ulcer: pyloric ligation, versus control. It is filed as in vivo, male rats. On the procedure:
Six groups (10 animals per group) of male rats weighing 180 to 200 g were subjected to ligation of their pyloruses under ether-anesthesia after fasting for 48 hours according to the method of Shay et al. (refer to Gastroenterology, 5, page 43 (1945)).
Just after subjecting to ligation, each of the present compound suspended in an aqueous physiological saline solution was intraperitoneally administered to each rat, the control being injected with an aqueous physiological saline solution. Then, after 15 hours of fasting without taking water, the rats were sacrificed with ether and their stomachs were removed to examine under a microscope for anatomy. The length and width of the thus-formed ulcer in the stomach were determined and expressed by the product (mm^2), and the total sum of the products was represented as the ulcer coefficient.

The subject of data set [2] is duodenal peptic ulcer due to acetic acid. In words: Effect on peptic ulcer due to acetic acid (duodenal ulcer). It is filed as in vivo, male rats. The note with it: 100 mg/kg, oral, rats; for Ulcer coefficient: 3 times a day for 10 days from third day; for Rate of suppression of ulcer: 3 times a day for 10 days, versus control. From the text:
The inventors of the present invention, taking into account of these situations, added to the above-mentioned method of evaluation the effect of accelerating the cure of the peptic ulcer by orally administering the present compound and a commercialized anti-peptic ulcer medicine, respectively to rats to which duodenal peptic ulcer due to acetic acid (refer to Okabe, 1971) considered to be most closely resembling to human peptic ulcer has been artificially formed.
Following the method of Okabe et al (refer to Amer. J. Dig. Dis., 16, […]), 6 groups (15 animals per group) of male rats weighing 240 to 260 g were subjected to laparotomy under ether anesthesia in which a metal circular frame was placed on the serosa at a distance of 5 to 7 mm from the duodenal pylorus, 0.06 ml of glacial acetic acid was poured into the frame. After 30 seconds, the liquid containing the acetic acid was removed and then the frame was removed. The test compound suspended in an aqueous 0.5% solution of carboxymethylcellulose was orally administered to the rat 3 times a day from the third day of the operation for consecutive 10 days. To the control group, only the solution of carboxymethylcellulose was administered. After the administration was over, the rats were sacrificed with ether, and their duodenum was removed to observe under a microscope for anatomy. The length and width of the thus-formed ulcer were measured and their product (expressed with mm^2) was recorded as the ulcer coefficient.
By the way, the above-mentioned experimental model has been highly evaluated internationally because the thus-formed ulcer is scarcely curable in nature and the histopathological change of the ulcer lesion closely resembles to that of human chronic ulcer as compared to the method of cautery-ulcer (refer to Skoryna, 1958) and the method of crumping-cortisone (refer to Umehara, 1965).

Data set [3] in a line: Acute toxicity test, oral. More on the design: species or system Female ICR-mice. The note with it: mouse, in vivo, mortality observed for a week, Litchfield-Wilcoxon. On the procedure:
Female ICR-mice of body weight of 20 to 24 g, 5 weeks after birth were used.
Eight animal per group were kept in a transparent polycage at room temperature of 23°±1° C., and RH of 60 to 70%.
After minutely pulverizing each one of the present compounds, the pulverized compound was suspended in an aqueous 5% sodium carboxymethylcellulose solution containing 20% of Tween-80. The aqueous suspension was forcibly orally administered by a metal stomach tube, the dose rate having been adjusted by changing the concentration of the present compound in the aqueous suspension.
In some mortal cases, the rat's spontaneous movement was lowered with the reduction of general tension and the rats died as they were.

Data set [4] deals with peptic ulcer. The following applies: cited from earlier work.

Usually LD50 stands for the dose at which mortality reaches 50%. A lower LD50 goes with a more toxic substance. Consider `COc1ccccc1C1NC(=O)CCS1` (centres unmarked) [Compound 3, 2-(2-methoxyphenyl)-1,3-perhydrothiazine-4-one], for which, in data set [1], the Ulcer coefficient turned out to be 2.4 mm^2 and the “Rate of suppression of ulcer” value was 93.5. In data set [2], the Ulcer coefficient was 1.5 mm^2 and the “Rate of suppression of ulcer” value turned out to be 80.2%. This compound also yielded a median lethal dose (LD50) at 168 h in data set [3] of over 8000 mg/kg.
`COc1ccc(C2NC(=O)CCS2)cc1OC` (centres unmarked) [Compound 2, 2-(3,4-dimethoxyphenyl)-1,3-perhydrothiazine-4-one]: the Ulcer coefficient in data set [1] is 1.9 mm^2; in data set [2] it was 2.0 mm^2. Besides, the “Rate of suppression of ulcer” value was 94.3 in data set [1] and 73.6% in data set [2]. This compound also gave an LD50 at 168 h in data set [3] of over 8000 mg/kg.
The matching figures for `COc1cc(C2NC(=O)CCS2)cc(OC)c1OC` (centres unmarked) [Compound 1, 2-(3,4,5-trimethoxyphenyl)-1,3-perhydrothiazine-4-one]: 9.3 mm^2, 2.5 mm^2, 74.9, 67.1% and 5400 mg/kg.
With `COc1ccc(C2NC(=O)CCS2)cc1` (centres unmarked) [Compound 4, 2-(4-methoxyphenyl)-1,3-perhydrothiazine-4-one], the Ulcer coefficient in data set [1] turned out to be 2.0 mm^2; in data set [2], 1.3 mm^2. Also, the “Rate of suppression of ulcer” value in data set [1] was determined as 94.5; in data set [2], 82.8%. In addition, the LD50 at 168 h in data set [3] is over 8000 mg/kg.
In the case of `CC1(C)[C@@H](OC(=O)CCC(=O)O)CC[C@]2(C)[C@H]3C(=O)C=C4[C@@H]5C[C@@](C)(C(=O)O)CC[C@]5(C)CC[C@@]4(C)[C@]3(C)CC[C@@H]12` [carbenoxolone], in data set [4], the Side effects result was “aldosterone-like side effects to cause hypertension and weakening of muscular function”. For the same compound, the “Accelerating effect on ulcer-curing” value in data set [4] (commercialized medicine, background) is on record as “excellent accelerating effect on the ulcer-curing”.
As to `CC(C)=CCCC(C)=CCCC(C)=CCCC(=O)OCC=C(C)CCC=C(C)C` [Positive control, 3,7dimethyl-2,6-octadienyl-5,9,13-trimethyl-4,8,12-tetradecatrienoate, reference compound], the Ulcer coefficient in data set [1] is reported as 32.5 mm^2; in data set [2], 6.1 mm^2. In addition, the results for the “Rate of suppression of ulcer” value in data set [1] and in data set [2] were 12.2 and 20.0%, respectively.
